Experimental data: PubChem BioAssay (NCI)
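The compound was tested at five concentrations on cells cultured in 96-well plates, with a 48-hour exposure period. Here, GI50 denotes the concentration required for 50% inhibition of growth. TGI marks complete inhibition of growth.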

Experiments:
Test in all cases: NCI-60 cell line screen, 48 h
NCI-H460 lung = system: NCI-H460 lung
NCI-H522 lung = system: NCI-H522 lung
NCI/ADR-RES ovarian = system: NCI/ADR-RES ovarian
OVCAR-3 ovarian = system: OVCAR-3 ovarian
OVCAR-4 ovarian = system: OVCAR-4 ovarian
OVCAR-5 ovarian = system: OVCAR-5 ovarian
OVCAR-8 ovarian = system: OVCAR-8 ovarian
PC-3 prostate = system: PC-3 prostate
RPMI-8226 leukemia = system: RPMI-8226 leukemia
RXF 393 renal = system: RXF 393 renal
SF-268 CNS = system: SF-268 CNS
SF-295 CNS = system: SF-295 CNS
SF-539 CNS = system: SF-539 CNS
SK-MEL-2 melanoma = system: SK-MEL-2 melanoma
SK-MEL-28 melanoma = system: SK-MEL-28 melanoma
SK-MEL-5 melanoma = system: SK-MEL-5 melanoma
SK-OV-3 ovarian = system: SK-OV-3 ovarian
SN12C renal = system: SN12C renal
SNB-19 CNS = system: SNB-19 CNS
SNB-75 CNS = system: SNB-75 CNS
SR leukemia = system: SR leukemia
SW-620 colon = system: SW-620 colon
T-47D breast = system: T-47D breast
TK-10 renal = system: TK-10 renal
U251 CNS = system: U251 CNS
UACC-257 melanoma = system: UACC-257 melanoma
UACC-62 melanoma = system: UACC-62 melanoma
UO-31 renal = system: UO-31 renal

## CC(C)(C)c1ccc(C(=O)Nc2sc3c(c2C#N)CCC(=O)C3)cc1
NCI-H460 lung
  GI50: 890 nM
  TGI: > 26000 nM
NCI-H522 lung
  GI50: 233 nM
  TGI: 1360 nM
NCI/ADR-RES ovarian
  GI50: 718 nM
  TGI: 5750 nM
OVCAR-3 ovarian
  GI50: 473 nM
  TGI: 1630 nM
OVCAR-4 ovarian
  GI50: 223 nM
  TGI: 687 nM
OVCAR-5 ovarian
  GI50: 531 nM
  TGI: 5780 nM
OVCAR-8 ovarian
  GI50: 643 nM
  TGI: > 100000 nM
PC-3 prostate
  GI50: 139 nM
RPMI-8226 leukemia
  GI50: 90.2 nM
  TGI: 495 nM
RXF 393 renal
  GI50: 237 nM
  TGI: 796 nM
SF-268 CNS
  GI50: 625 nM
  TGI: > 100000 nM
SF-295 CNS
  GI50: 658 nM
  TGI: > 26200 nM
SF-539 CNS
  GI50: 209 nM
  TGI: 936 nM
SK-MEL-2 melanoma
  GI50: 960 nM
  TGI: 2910 nM
SK-MEL-28 melanoma
  GI50: 704 nM
  TGI: 5670 nM
SK-MEL-5 melanoma
  GI50: 706 nM
  TGI: 1700 nM
SK-OV-3 ovarian
  GI50: 2180 nM
  TGI: 9940 nM
SN12C renal
  GI50: 611 nM
  TGI: > 53500 nM
SNB-19 CNS
  GI50: 406 nM
  TGI: > 100000 nM
SNB-75 CNS
  GI50: 612 nM
  TGI: 2600 nM
SR leukemia
  GI50: 149 nM
  TGI: > 38100 nM
SW-620 colon
  GI50: 105 nM
  TGI: 566 nM
T-47D breast
  GI50: 211 nM
  TGI: 905 nM
TK-10 renal
  GI50: 531 nM
  TGI: 5080 nM
U251 CNS
  GI50: 218 nM
  TGI: > 100000 nM
UACC-257 melanoma
  GI50: 690 nM
  TGI: 3470 nM
UACC-62 melanoma
  GI50: 347 nM
  TGI: 2240 nM
UO-31 renal
  GI50: 224 nM
  TGI: 678 nM
